Results: patent US20240285773A1, “METHODS OF TREATING MYELODYSPLASTIC SYNDROME AND MONITORING THE TREATMENT” (Geron Corporation, priority 2023, published 2024)
“And” between values parts separate entries of the source, which are not always exact repeats. Identical values can stand only once. [nps] = N3'→P5' thiophosphoramidate linkage; {Palm} = palmitoyl lipid

Tested on: patients with baseline cytogenetic abnormality
Assay: Phase 3 trial: cytogenetic response per IWG 2006
Format: in vivo, human
From the text: The primary end point was rate of RBC-TI for 8 consecutive weeks or longer. Key secondary end points included rate of 24-week TI, duration of TI, and the rate of hematologic response (hematologic improvement-erythroid [HI-E], based on modified International Working Group [IWG] 2006 criteria, and HI-E per revised IWG 2018). Additional secondary end points included relative change in number of RBC transfusions received by patients, relative change in hemoglobin, and safety. The changes in mutational status and in patient-reported fatigue over time (assessed by the Functional Assessment of Chronic Illness Therapy [FACIT] Fatigue Scale) were exploratory end points. Subgroup analyses were performed including baseline presence or absence of RS, prior RBC transfusion burden (≥4 to ≤6 or >6 RBC units/8-weeks during a 16-week period prior to randomization), and low or intermediate-1 IPSS risk categories. Subgroup analyses were also performed, including baseline mutation status as well as telomerase activity (TA), telomere lengths (TL), and human telomerase reverse transcriptase (hTERT) levels. Peripheral blood hematology, bone marrow evaluation, mutation assessment, and cytogenetic evaluation were performed centrally and responses assessed by an independent review committee (IRC). Rate of 1-year RBC-TI was reported as a post hoc analysis.
As noted above, patients with heavily RBC-TD-ESA relapsed/refractory or ineligible non-del(5q) LR-MDS naive to lenalidomide and hypomethylating agents (len/HMA) received 2-hr infusion of imetelstat 7.5 mg/kg or placebo every 4 weeks. An independent review committee assessed abnormal cytogenetic profiles of bone marrow samples taken pre- and every 24 weeks post-treatment to assess cytogenetic response of complete or partial remission. Of the 178 randomized patients, 22.0% in the imetelstat group and 21.7% in the placebo group had baseline cytogenetic abnormalities and post-treatment samples.

[1] = 26 patients with baseline abnormality
[2] = ≥1-year TI responders with baseline abnormality (7)

Substance: Imetelstat: first-in-class telomerase inhibitor; synthetic lipid-conjugated 13-mer oligonucleotide N3′→P5′-thiophosphoramidate (TAGGGTTAGACAA; all [nps], 5' {Palm}, sugars by position and methylation of C not given here)
- Cytogenetic CR or PR [1]: (35) %
- Cytogenetic CR or PR, patients [1]: 9 N
- Cytogenetic complete response (CR) [1]: (19) %
- Cytogenetic complete response (CR), patients [1]: 5 N
- Cytogenetic partial response (PR) [1]: (15) %
- Cytogenetic partial response (PR), patients [1]: 4 N
- Cytogenetic response not evaluable [1]: (46) %
- Cytogenetic response not evaluable, patients [1]: 12 N
- Does not meet cytogenetic CR or PR criteria [1]: (19) %
- Does not meet cytogenetic CR or PR criteria, patients [1]: 5 N
- Cytogenetic CR or PR (26 patients with baseline abnormality, listed as imetelstat): 35% and 34.6%
- Cytogenetic CR or PR, % difference vs placebo (in vivo): 19% (−16, 44)
- Did not meet the response criteria, patients [2]: 1 patient
- cCR [2]: 57%
- cCR, patients [2]: 4 patients
- cPR [2]: 29%
- cPR, patients [2]: 2 patients
